According to ChEMBL document CHEMBL1201862, “PubChem BioAssay data set” (2004):
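1) Cells in 96-well plates. 2) Compound, 48 h, 5 concentrations. 3) Linear interpolation between surrounding doses. 4) Unreached endpoint = highest concentration. GI50: concentration for 50% inhibition of growth.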 The source made the active and inactive calls. Cut-off read from the data, not from the text of the source: active = GI50 up to about 1.1 µM and inactive = higher.

Tests used:
Assay in all cases: DTP human tumour cell line panel, 48 h
ACHN = test system: ACHN
CAKI-1 = test system: CAKI-1
HCT-116 = test system: HCT-116
HOP-18 = test system: HOP-18
IGROV-1 = test system: IGROV-1
K562 = test system: K562
MOLT-4 = test system: MOLT-4
Malme-3M = test system: Malme-3M
NCI-H460 = test system: NCI-H460
NCI-H522 = test system: NCI-H522
OVCAR-3 = test system: OVCAR-3
OVCAR-5 = test system: OVCAR-5
OVCAR-8 = test system: OVCAR-8
RXF 393 = test system: RXF 393
SK-MEL-28 = test system: SK-MEL-28
TK-10 = test system: TK-10
U-251 = test system: U-251
BT-549 = test system: BT-549
MDA-N = test system: MDA-N
T47D = test system: T47D

Measured: GI50

Cc1ccc2nc(N)[nH]c(=O)c2c1Sc1ccncc1
inactive: ACHN 7.35 µM | CAKI-1 31.6 µM | HCT-116 15.5 µM | HOP-18 > 100 µM | IGROV-1 > 71.6 µM | K562 15.8 µM | MOLT-4 6.28 µM | Malme-3M > 65.2 µM | NCI-H460 5.28 µM | NCI-H522 17.8 µM | OVCAR-3 > 69.2 µM | OVCAR-5 91.2 µM | OVCAR-8 > 31.1 µM | RXF 393 55.8 µM | SK-MEL-28 > 92.3 µM | TK-10 > 100 µM | U-251 > 51.1 µM

COC(=O)C1=CC2OC13CC1CCC3(C2=O)C1(C)C (centres undefined)
inactive: ACHN 8.83 µM | CAKI-1 2.2 µM | HCT-116 11.4 µM | HOP-18 6.46 µM | IGROV-1 16.7 µM | K562 11.2 µM | MOLT-4 14 µM | Malme-3M 8.07 µM | NCI-H460 34.1 µM | NCI-H522 2.34 µM | OVCAR-3 5.89 µM | OVCAR-5 19 µM | OVCAR-8 8.04 µM | RXF 393 12 µM | TK-10 10.4 µM | U-251 12.9 µM

C[N+]1(C)C/C(=C\C=C\c2ccccc2)C(=O)/C(=C/C=C/c2ccccc2)C1
inactive: ACHN 49.7 µM | BT-549 1.92 µM | CAKI-1 65 µM | HCT-116 9.48 µM | HOP-18 > 42.2 µM | IGROV-1 2.99 µM | K562 4.18 µM | MDA-N 4.48 µM | MOLT-4 4.06 µM | Malme-3M 16 µM | NCI-H460 17.1 µM | NCI-H522 3.78 µM | OVCAR-3 8.61 µM | OVCAR-5 24.3 µM | OVCAR-8 14.5 µM | RXF 393 21.5 µM | SK-MEL-28 3.85 µM | T47D 17 µM | TK-10 33.4 µM | U-251 3.89 µM

O=C(CSc1nnc(Cc2ccccc2)o1)Nc1cccc(Cl)c1
inactive: ACHN 46.9 µM | CAKI-1 92.5 µM | HCT-116 > 100 µM | HOP-18 87.1 µM | IGROV-1 > 100 µM | K562 46.6 µM | MOLT-4 79.3 µM | Malme-3M 63.7 µM | NCI-H460 > 100 µM | NCI-H522 40.9 µM | OVCAR-3 31.9 µM | OVCAR-5 > 100 µM | OVCAR-8 > 100 µM | RXF 393 > 100 µM | SK-MEL-28 > 100 µM | TK-10 > 100 µM | U-251 > 100 µM

C/C(CC(=O)Nc1ccc(NC(=O)C/C(C)=N\NC(N)=O)cc1)=N/NC(N)=O
inactive: ACHN 99.8 µM | CAKI-1 > 100 µM | HCT-116 > 68.9 µM | HOP-18 63 µM | IGROV-1 > 100 µM | K562 52.7 µM | MOLT-4 47.2 µM | Malme-3M > 100 µM | NCI-H460 > 62.4 µM | NCI-H522 > 51.5 µM | OVCAR-3 49.5 µM | OVCAR-5 > 100 µM | OVCAR-8 > 100 µM | RXF 393 > 91.4 µM | SK-MEL-28 > 44.4 µM | TK-10 > 68.7 µM | U-251 > 78 µM

CC(C)C(N)=O [ISOBUTYRAMIDE]
inactive: ACHN > 5000 µM | CAKI-1 > 5000 µM | HCT-116 > 5000 µM | HOP-18 > 5000 µM | IGROV-1 > 5000 µM | K562 > 5000 µM | MOLT-4 > 5000 µM | Malme-3M > 5000 µM | NCI-H460 > 5000 µM | NCI-H522 > 5000 µM | OVCAR-5 > 5000 µM | OVCAR-8 > 5000 µM | RXF 393 > 5000 µM | SK-MEL-28 > 5000 µM | TK-10 > 5000 µM | U-251 > 5000 µM

COc1cc2c(cc1OC)/C(=C\c1ccccc1N)C(=O)OC2
inactive: ACHN 18.3 µM | CAKI-1 12 µM | HOP-18 13.8 µM | IGROV-1 18.6 µM | K562 3.02 µM | MOLT-4 2.31 µM | Malme-3M 13.9 µM | NCI-H460 14.7 µM | NCI-H522 1.56 µM | OVCAR-3 18.7 µM | OVCAR-5 20 µM | OVCAR-8 > 10 µM | RXF 393 3.79 µM | SK-MEL-28 17 µM | TK-10 20.6 µM | U-251 18.5 µM
